# “And” between values parts separate entries of the source, which are not always exact repeats. Identical values can stand only once. “Also recorded” adds a separate entry of the source.
# What was measured:
# [1] = patients administered therewith; cited from earlier work
# cancer cells = settings: photo-irradiation; cited from earlier work
# [2] = In vivo pharmacokinetics of zinc coproporphyrin-I in HeLa tumor-bearing nude mice (tissue fluorescence); design: species or system (BALB/c) nude mouse; settings: 25 mg/kg intravenous in physiological saline, back and muscle, excitation 405 nm, fluorescence 580 nm
# Description: In the back of a (BALB/c) nude mouse, 5×10^6 HeLa cells in 0.1 ml were transplanted intradermally. When the tumor grew to 12-17 mm diameter, 25 mg/kg of zinc coproporphyrin-I in physiological saline was intravenously injected, and mice were sacrificed at each time shown in FIG. 2, and then zinc coproporphyrin-I in 3 kinds of tissues (tumor, back and muscle) was measured with excitation at 405 nm and fluorescence at 580 nm.
# [3] = Photophysical characteristics: generation of singlet oxygen (near infrared emission); type: physicochemical; settings: excitation at 563 nm, emission at 1270 nm in near infrared light
# Description: Also, the generation of singlet oxygen was confirmed with excitation at 563 nm and emission at 1270 nm in near infrared light.
# DNA = DNA breakage under light irradiation; type: biochemical; settings: under the irradiation of 350 nm light
# Description: (§1) Thus, after systemic administration of these compounds systemically, cancer tissues can be selectively killed, and the cancer can be treated without side effects by irradiating light only on the cancer tissues. Therefore, these compounds can be used as photodynamic therapy agents not only for surface cancer types (for example, breast cancer, skin cancer, esophageal cancer) but also deep cancer types (for example, gastric cancer, lung cancer).
# [4] = Anti-cellular activity with and without light irradiation, in vitro system using mice; type: cell-based
# Description: as §1
# [5] = Photophysical characteristics: absorption spectrum; type: physicochemical
# Description: Measurement of Photophysical Characteristics of Zinc Coproporphyrin-I
# HeLa tumor = assay: Drug efficacy of the agent for photodynamic therapy: laser irradiation of HeLa tumor in nude mouse, HE-stained sections; settings: 203 mg/kg i.v.; YAG-Dye laser 580 nm after 28 minutes, 100 J/cm^2; tumors excised 24 hours after irradiation
# Description: To the back of a (BALB/c) nude mouse, 5×10^6 HeLa cells in 0.1 ml were intradermally transplanted. […] The wavelength was 580 nm. The light was emitted horizontally to the side of the tumor. To observe the necrosis layer, the tumors were excised out at 24 hours after the laser irradiation, fixed in 20% formaldehyde solution and embedded in paraffin. Sections were prepared, stained with HE and observed.
compound,measurement,setting,value
C=CC1=C(C)C2=CC3=C(/C=C/NO)C(C)(O)C(=CC4=NC(=CC5=NC(=CC1=N2)C(C)=C5CCC(=O)N[C@@H](CC(=O)[O-])C(=O)[O-])C(CCC(=O)N[C@@H](CC(=O)[O-])C(=O)[O-])=C4C)N3.[Na+].[Na+].[Na+].[Na+] (stereo partly shown) [ATX-S10 (Na)],complete excretion period from the body,[1],7 to 8 h
coproporphyrin-III,toxic effect on cancer cells compared to that of hematoporphyrin,cancer cells,superior toxic effect
zinc coproporphyrin-I,time until excreted out of the body,[2],3 to 4 days
same,generation of singlet oxygen,[3],confirmed
same,DNA breakage,DNA,can break DNA efficiently
same,anti-cellular activity under the irradiation of light,[4]; irradiation of light which induces DNA cleavage,strong anti-cellular activity
same,anti-cellular activity by themselves,[4]; without light irradiation,do not demonstrate any anti-cellular activity
same,absorption peaks,[5],403 nm and 535 nm and 571 nm
same,cells appearing to be dead,HeLa tumor,about 10 % of the total cells
same,histological observations after light irradiation of the HeLa tumor,HeLa tumor,"thrombus formation in the capillary vessels and hemorrhage inside of the tissues; also recorded: anucleated cells, chromatin condensed cells and cells with ruptured vacuoles were seen"

# Reference: patent US20080139804A1, “Photosensitive Compounds” (priority 2005, published 2008)
